Source: ChEMBL document CHEMBL4340549, “Design, synthesis and biological evaluation of isochroman-4-one hybrids bearing piperazine moiety as antihypertensive agent candidates” (Bioorg Med Chem, 2019)

Columns and labels:
Thoracic aorta [1] = experiment: Vasodilatory activity in Sprague-Dawley rat thoracic aorta assessed as inhibition of noradrenaline-induced contractions at 10 uM relative to untreated control; type: functional
[2] = biological target: T1, Alpha-1D adrenergic receptor (Rattus norvegicus, UniProt P23944); experiment: Antagonist activity at alpha-1D adrenergic receptor in SPF rat vas thoracic aorta assessed as inhibition of noradrenaline-induced contractions; conditions: read-out: pA2 (converted)
T1 sequence (P23944 whole entry): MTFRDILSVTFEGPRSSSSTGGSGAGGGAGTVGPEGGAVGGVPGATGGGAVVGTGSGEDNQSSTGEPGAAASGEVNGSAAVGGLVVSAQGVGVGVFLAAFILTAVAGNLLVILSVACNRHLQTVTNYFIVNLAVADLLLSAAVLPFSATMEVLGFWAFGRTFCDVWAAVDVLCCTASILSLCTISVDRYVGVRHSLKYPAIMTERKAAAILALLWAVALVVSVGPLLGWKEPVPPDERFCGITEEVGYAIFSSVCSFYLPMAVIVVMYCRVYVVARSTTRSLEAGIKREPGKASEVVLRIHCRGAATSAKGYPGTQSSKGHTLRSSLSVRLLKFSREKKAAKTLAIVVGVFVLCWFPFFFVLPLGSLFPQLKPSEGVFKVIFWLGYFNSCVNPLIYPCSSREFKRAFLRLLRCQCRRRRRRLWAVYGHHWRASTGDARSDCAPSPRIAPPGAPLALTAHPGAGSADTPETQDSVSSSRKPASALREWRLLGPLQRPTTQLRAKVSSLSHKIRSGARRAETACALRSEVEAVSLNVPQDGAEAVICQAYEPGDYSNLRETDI

Thoracic aorta [3] = experiment: Vasodilatory activity in Sprague-Dawley rat thoracic aorta assessed as inhibition of noradrenaline-induced contractions at 100 uM relative to untreated control; type: functional
Rattus norvegicus [4] = experiment: Antihypertensive activity in spontaneously hypertensive rat assessed as systolic arterial pressure at 80 mg/kg, po measured after 4 hrs by tail-cuff method (reference value: 178.66 +/- 17.18 mmHg); type: functional
Rattus norvegicus [5] = experiment: Effect on heart rate in spontaneously hypertensive rat assessed as heart rate level at 80 mg/kg, po measured after 1 hr by tail-cuff method (reference value: 415.25 +/- 14.7 bpm); type: ADME, organism-based; conditions: in vivo
Rattus norvegicus [6] = experiment: Antihypertensive activity in spontaneously hypertensive rat assessed as mean arterial pressure at 80 mg/kg, po measured after 2 hrs by tail-cuff method (reference value: 163 +/- 8.1 mmHg); type: functional
Rattus norvegicus [7] = experiment: Antihypertensive activity in spontaneously hypertensive rat assessed as systolic arterial pressure at 80 mg/kg, po measured after 6 hrs by tail-cuff method (reference value: 179.36 +/- 18.33 mmHg); type: functional
Rattus norvegicus [8] = experiment: Antihypertensive activity in spontaneously hypertensive rat assessed as diastolic arterial pressure at 80 mg/kg, po measured after 4 hrs by tail-cuff method (reference value: 136.12 +/- 5.3 mmHg); type: functional
Rattus norvegicus [9] = experiment: Antihypertensive activity in spontaneously hypertensive rat assessed as systolic arterial pressure at 80 mg/kg, po measured after 0 hrs by tail-cuff method (reference value: 186.10 +/- 4.55 mmHg); type: functional
Rattus norvegicus [10] = experiment: Antihypertensive activity in spontaneously hypertensive rat assessed as mean arterial pressure at 80 mg/kg, po measured after 1 hr by tail-cuff method (reference value: 160 +/- 9.97 mmHg); type: functional
Rattus norvegicus [11] = experiment: Antihypertensive activity in spontaneously hypertensive rat assessed as mean arterial pressure at 80 mg/kg, po measured after 0 hrs by tail-cuff method (reference value: 161.70 +/- 5.12 mmHg); type: functional
Rattus norvegicus [12] = experiment: Antihypertensive activity in spontaneously hypertensive rat assessed as diastolic arterial pressure at 80 mg/kg, po measured after 2 hrs by tail-cuff method (reference value: 149.90 +/- 6 mmHg); type: functional
Rattus norvegicus [13] = experiment: Antihypertensive activity in spontaneously hypertensive rat assessed as mean arterial pressure at 80 mg/kg, po measured after 8 hrs by tail-cuff method (reference value: 153.55 +/- 11.43 mmHg); type: functional
Rattus norvegicus [14] = experiment: Antihypertensive activity in spontaneously hypertensive rat assessed as mean arterial pressure at 80 mg/kg, po measured after 4 hrs by tail-cuff method (reference value: 150.30 +/- 9.26 mmHg); type: functional
Rattus norvegicus [15] = experiment: Effect on heart rate in spontaneously hypertensive rat assessed as heart rate level at 80 mg/kg, po measured after 2 hrs by tail-cuff method (reference value: 413.2 +/- 15.2 bpm); type: ADME, organism-based; conditions: in vivo
Rattus norvegicus [16] = experiment: Antihypertensive activity in spontaneously hypertensive rat assessed as diastolic arterial pressure at 80 mg/kg, po measured after 8 hrs by tail-cuff method (reference value: 140.61 +/- 10.3 mmHg); type: functional
Rattus norvegicus [17] = experiment: Antihypertensive activity in spontaneously hypertensive rat assessed as diastolic arterial pressure at 80 mg/kg, po measured after 1 hr by tail-cuff method (reference value: 147.33 +/- 9.8 mmHg); type: functional
Rattus norvegicus [18] = experiment: Antihypertensive activity in spontaneously hypertensive rat assessed as systolic arterial pressure at 80 mg/kg, po measured after 2 hrs by tail-cuff method (reference value: 189.20 +/- 12.31 mmHg); type: functional
Rattus norvegicus [19] = experiment: Antihypertensive activity in spontaneously hypertensive rat assessed as diastolic arterial pressure at 80 mg/kg, po measured after 6 hrs by tail-cuff method (reference value: 137.54 +/- 9.2 mmHg); type: functional
Rattus norvegicus [20] = experiment: Effect on heart rate in spontaneously hypertensive rat assessed as heart rate level at 80 mg/kg, po measured after 8 hrs by tail-cuff method (reference value: 412.77 +/- 11.3 bpm); type: ADME, organism-based; conditions: in vivo
Rattus norvegicus [21] = experiment: Antihypertensive activity in spontaneously hypertensive rat assessed as mean arterial pressure at 80 mg/kg, po measured after 6 hrs by tail-cuff method (reference value: 151.48 +/- 12.24 mmHg); type: functional
Rattus norvegicus [22] = experiment: Antihypertensive activity in spontaneously hypertensive rat assessed as systolic arterial pressure at 80 mg/kg, po measured after 1 hr by tail-cuff method (reference value: 185.35 +/- 10.30 mmHg); type: functional
Rattus norvegicus [23] = experiment: Antihypertensive activity in spontaneously hypertensive rat assessed as systolic arterial pressure at 80 mg/kg, po measured after 8 hrs by tail-cuff method (reference value: 179.42 +/- 13.70 mmHg); type: functional
Rattus norvegicus [24] = experiment: Antihypertensive activity in spontaneously hypertensive rat assessed as diastolic arterial pressure at 80 mg/kg, po measured after 0 hrs by tail-cuff method (reference value: 149.50 +/- 5.4 mmHg); type: functional
Rattus norvegicus [25] = experiment: Effect on heart rate in spontaneously hypertensive rat assessed as heart rate level at 80 mg/kg, po measured after 4 hrs by tail-cuff method (reference value: 410.80 +/- 17.4 bpm); type: ADME, organism-based; conditions: in vivo
Rattus norvegicus [26] = experiment: Effect on heart rate in spontaneously hypertensive rat assessed as heart rate level at 80 mg/kg, po measured after 6 hrs by tail-cuff method (reference value: 411.12 +/- 19.1 bpm); type: ADME, organism-based; conditions: in vivo
Rattus norvegicus [27] = experiment: Antihypertensive activity in spontaneously hypertensive rat assessed as reduction in mean arterial pressure at 80 mg/kg, po measured after 2 hrs by tail-cuff method; type: functional; design: scale not given: the % may be the effect or the level left
Rattus norvegicus [28] = experiment: Effect on heart rate in spontaneously hypertensive rat assessed as heart rate level at 80 mg/kg, po measured after 0 hrs by tail-cuff method (reference value: 413.17 +/- 10.5 bpm); type: ADME, organism-based; conditions: in vivo

COc1cc2c(cc1OCC(O)CN1CCN(C(=O)c3ccco3)CC1)C(=O)C(C)OC2 (stereo not drawn)
inhibition at 10 µM (Thoracic aorta [1]): 33.4% | Kb [2]: 1.55 µM | inhibition at 100 µM (Thoracic aorta [3]): 44.9%

CCOc1ccccc1N1CCN(CC(O)COc2cc3c(cc2OC)C(=O)C(C)OC3)CC1 (stereo not drawn)
inhibition at 10 µM (Thoracic aorta [1]): 11.6% | inhibition at 100 µM (Thoracic aorta [3]): 23.3%

COc1cc2c(cc1OCC(O)CN1CCN(c3ccccc3)CC1)COC(C)C2=O (stereo not drawn)
inhibition at 10 µM (Thoracic aorta [1]): 39.2% | Kb [2]: 0.621 µM | inhibition at 100 µM (Thoracic aorta [3]): 48.1%

COc1cc2c(cc1OCC(O)CN1CCN(C(=O)c3ccco3)CC1)COC(C)C2=O (stereo not drawn)
inhibition at 10 µM (Thoracic aorta [1]): 17.8% | inhibition at 100 µM (Thoracic aorta [3]): 22.8%

CCOc1ccccc1N1CCN(CC(O)COc2cc3c(cc2OC)COC(C)C3=O)CC1 (stereo not drawn)
inhibition at 10 µM (Thoracic aorta [1]): 25.4% | Kb [2]: 0.485 µM | inhibition at 100 µM (Thoracic aorta [3]): 55.3%

COc1cc2c(cc1OCC(O)CN1CCN(c3ccccc3OC)CC1)COC(C)C2=O (stereo not drawn)
inhibition at 10 µM (Thoracic aorta [1]): 41.7% | Kb [2]: 2.2 µM | inhibition at 100 µM (Thoracic aorta [3]): 50.4%

COc1ccccc1N1CCN(CC(O)COc2c(OC)ccc3c2COC(C)C3=O)CC1 (stereo not drawn)
inhibition at 10 µM (Thoracic aorta [1]): 13.6% | inhibition at 100 µM (Thoracic aorta [3]): 24.4%

COc1cc2c(cc1OCC(O)CN1CCN(c3ccccc3Cl)CC1)COC(C)C2=O (stereo not drawn)
inhibition at 10 µM (Thoracic aorta [1]): 27% | inhibition at 100 µM (Thoracic aorta [3]): 32.4%

COc1ccc2c(c1OCC(O)CN1CCN(c3ccccc3Cl)CC1)COC(C)C2=O (stereo not drawn)
inhibition at 10 µM (Thoracic aorta [1]): 18.2% | inhibition at 100 µM (Thoracic aorta [3]): 29.1%

COc1cc2c(cc1OCC(O)CN1CCN(c3ccccc3Cl)CC1)C(=O)C(C)OC2 (stereo not drawn)
inhibition at 10 µM (Thoracic aorta [1]): 30.2% | inhibition at 100 µM (Thoracic aorta [3]): 42.4%

COc1cc2c(cc1OCC(O)CN1CCN(c3ccccc3)CC1)C(=O)C(C)OC2 (stereo not drawn)
inhibition at 10 µM (Thoracic aorta [1]): 28.6% | inhibition at 100 µM (Thoracic aorta [3]): 46.4%

CCOc1ccccc1N1CCN(CC(O)COc2c(OC)ccc3c2COC(C)C3=O)CC1 (stereo not drawn)
inhibition at 10 µM (Thoracic aorta [1]): 23.1% | inhibition at 100 µM (Thoracic aorta [3]): 36.1%

COc1cc2c(cc1OCC(O)CN1CCN(c3ccccc3OC)CC1)C(=O)C(C)OC2 (stereo not drawn)
inhibition at 10 µM (Thoracic aorta [1]): 23.1% | inhibition at 100 µM (Thoracic aorta [3]): 44.6%

COc1ccc2c(c1OCC(O)CN1CCN(C(=O)c3ccco3)CC1)COC(C)C2=O (stereo not drawn)
inhibition at 10 µM (Thoracic aorta [1]): 20.8% | inhibition at 100 µM (Thoracic aorta [3]): 31.9%

COc1ccc2c(c1OCC(O)CN1CCN(C(=O)C3CCCO3)CC1)COC(C)C2=O (stereo not drawn)
inhibition at 10 µM (Thoracic aorta [1]): 31.4% | Kb [2]: 0.34 µM | inhibition at 100 µM (Thoracic aorta [3]): 45.1%

COc1ccccc1N1CCN(CC(O)COc2cccc3ccccc23)CC1 (stereo not drawn) [NAFTOPIDIL]
Activity (Rattus norvegicus [4]): 153.65 mmHg | Activity (Rattus norvegicus [5]): 412.14 bpm | Activity (Rattus norvegicus [6]): 135.94 mmHg | Activity (Rattus norvegicus [7]): 158.22 mmHg | Activity (Rattus norvegicus [8]): 134.31 mmHg | Activity (Rattus norvegicus [9]): 181.92 mmHg | inhibition at 10 µM (Thoracic aorta [1]): 47.5% | Activity (Rattus norvegicus [10]): 147.25 mmHg | Activity (Rattus norvegicus [11]): 162.07 mmHg | Activity (Rattus norvegicus [12]): 129.85 mmHg | Activity (Rattus norvegicus [13]): 152.21 mmHg | Activity (Rattus norvegicus [14]): 140.76 mmHg | Activity (Rattus norvegicus [15]): 406.12 bpm | Activity (Rattus norvegicus [16]): 143.06 mmHg | Activity (Rattus norvegicus [17]): 140.19 mmHg | Activity (Rattus norvegicus [18]): 148.13 mmHg | Activity (Rattus norvegicus [19]): 139.57 mmHg | Kb [2]: 0.143 µM | Activity (Rattus norvegicus [20]): 417.25 bpm | Activity (Rattus norvegicus [21]): 145.79 mmHg | Activity (Rattus norvegicus [22]): 161.36 mmHg | Activity (Rattus norvegicus [23]): 170.5 mmHg | Activity (Rattus norvegicus [24]): 152.14 mmHg | Activity (Rattus norvegicus [25]): 409.22 bpm | Activity (Rattus norvegicus [26]): 411.19 bpm | inhibition at 100 µM (Thoracic aorta [3]): 65.2% | Activity (Rattus norvegicus [27]): 16.1% | Activity (Rattus norvegicus [28]): 415.15 bpm

COc1cc2c(cc1OCC(O)CN1CCN(C(=O)C3CCCO3)CC1)COC(C)C2=O (stereo not drawn)
inhibition at 10 µM (Thoracic aorta [1]): 33.9% | inhibition at 100 µM (Thoracic aorta [3]): 40.1%

COc1ccc2c(c1OCC(O)CN1CCN(c3ccccc3)CC1)COC(C)C2=O (stereo not drawn)
inhibition at 10 µM (Thoracic aorta [1]): 37.8% | Kb [2]: 0.296 µM | inhibition at 100 µM (Thoracic aorta [3]): 59.7%
